12 compounds from ChEMBL document CHEMBL1649220, “New variant of CTX-M-type extended-spectrum beta-lactamases, CTX-M-71, with a Gly238Cys substitution in a Klebsiella pneumoniae isolate from Bulgaria” (2009) can be followed below.

≈ marks a conversion by molar mass, not a printed value.

What all share (format): functional
Assay [1] concerns Escherichia coli. In words: Antimicrobial activity against Escherichia coli DH5alpha harboring pBC-CTX-M-15 plasmid by agar dilution method in presence of beta-lactamase inhibitor clavulanic acid. The conditions noted are these: DH5[alpha].
In assay [2] the test system is Klebsiella pneumoniae. The assay can be described thus: Antimicrobial activity against Klebsiella pneumoniae AH24-270 expressing blaCTX-M-71 gene by agar dilution method in presence of beta-lactamase inhibitor clavulanic acid.
Assay [3] has as its system Escherichia coli. The assay can be described thus: Antimicrobial activity against Escherichia coli K-12 transconjugant harboring blaCTX-M-71 gene by agar dilution method. (Agar dilution tests growth on a series of plates holding different concentrations.)
In assay [4] the test system is Klebsiella pneumoniae. The assay can be described thus: Antimicrobial activity against Klebsiella pneumoniae AH24-270 expressing blaCTX-M-71 gene by agar dilution method.
For assay [5], the system named is Escherichia coli. In words: Antimicrobial activity against Escherichia coli K-12 transconjugant harboring blaCTX-M-71 gene by agar dilution method in presence of beta-lactamase inhibitor clavulanic acid.
Assay [6] concerns Escherichia coli. The assay can be described thus: Antimicrobial activity against Escherichia coli DH5alpha by agar dilution method in presence of beta-lactamase inhibitor clavulanic acid. The note with it: DH5[alpha].
For assay [7], the system named is Escherichia coli. In words: Antimicrobial activity against Escherichia coli DH5alpha harboring pBC-CTX-M-71 plasmid by agar dilution method in presence of beta-lactamase inhibitor clavulanic acid. The note with it: DH5[alpha].
Assay [8] deals with Escherichia coli. In words: Antimicrobial activity against Escherichia coli DH5[alpha] by agar dilution method.
Assay [9] relates to Escherichia coli. The assay can be described thus: Antimicrobial activity against Escherichia coli DH5[alpha] harboring pBC-CTX-M-15 plasmid by agar dilution method.
Assay [10] deals with Escherichia coli. The assay can be described thus: Antimicrobial activity against Escherichia coli DH5[alpha] harboring pBC-CTX-M-71 plasmid by agar dilution method.
Assay [11] has as its system Escherichia coli. The assay can be described thus: Antimicrobial activity against Escherichia coli K-12 by agar dilution method in presence of beta-lactamase inhibitor clavulanic acid.
Assay [12] deals with Escherichia coli. The assay can be described thus: Antimicrobial activity against Escherichia coli K-12 by agar dilution method.
The test system of assay [13] is Escherichia coli. The assay can be described thus: Antimicrobial activity against Escherichia coli DH5alpha by agar dilution method in presence of beta-lactamase inhibitor Tazobactam. The conditions noted are these: DH5[alpha].
The test system of assay [14] is Escherichia coli. The assay can be described thus: Antimicrobial activity against Escherichia coli DH5alpha harboring pBC-CTX-M-15 plasmid by agar dilution method in presence of beta-lactamase inhibitor Tazobactam. The note with it: DH5[alpha].
The subject of assay [15] is Klebsiella pneumoniae. In words: Antimicrobial activity against Klebsiella pneumoniae AH24-270 expressing blaCTX-M-71 gene by agar dilution method in presence of beta-lactamase inhibitor Tazobactam.
Assay [16] has as its system Escherichia coli. In words: Antimicrobial activity against Escherichia coli K-12 by agar dilution method in presence of beta-lactamase inhibitor Tazobactam.
In assay [17] the test system is Escherichia coli. In words: Antimicrobial activity against Escherichia coli K-12 transconjugant harboring blaCTX-M-71 gene by agar dilution method in presence of beta-lactamase inhibitor Tazobactam.
For assay [18], the system named is Escherichia coli. The assay can be described thus: Antimicrobial activity against Escherichia coli DH5alpha harboring pBC-CTX-M-71 plasmid by agar dilution method in presence of beta-lactamase inhibitor Tazobactam. The note with it: DH5[alpha].

As a reminder, the MIC is the smallest concentration in the dilution series that meets the test's criterion for growth inhibition. For `CC1(C)S[C@@H]2[C@H](NC(=O)[C@H](N)c3ccc(O)cc3)C(=O)N2[C@H]1C(=O)O` [AMOXICILLIN], the MIC with Escherichia coli [1] was 8 µg/mL; in the assay with Klebsiella pneumoniae [2], over 512 µg/mL; against Escherichia coli [3], over 512 µg/mL; with Klebsiella pneumoniae [4] it was over 512 µg/mL; in the assay with Escherichia coli [5], 64 µg/mL; in the assay with Escherichia coli [6], 2 µg/mL. Further, the MIC is 8 µg/mL in the assay on Escherichia coli [7]; 4 µg/mL (≈ 10.9 µM) in the assay with Escherichia coli [8]; over 512 µg/mL in the assay with Escherichia coli [9]; over 512 µg/mL in the assay on Escherichia coli [10]; 2 µg/mL in the assay with Escherichia coli [11]; 2 µg/mL (≈ 5.47 µM) against Escherichia coli [12].
As for `C[C@H]1[C@H](NC(=O)/C(=N\OC(C)(C)C(=O)O)c2csc(N)n2)C(=O)N1S(=O)(=O)O` [AZTREONAM], the MIC against Escherichia coli [3] amounted to 8 µg/mL (≈ 18.4 µM); with Klebsiella pneumoniae [4] it was 128 µg/mL (≈ 294 µM); against Escherichia coli [9], 64 µg/mL (≈ 147 µM); with Escherichia coli [10], 8 µg/mL (≈ 18.4 µM).
For the compound `CO/N=C(\C(=O)N[C@@H]1C(=O)N2C(C(=O)[O-])=C(C[N+]3(C)CCCC3)CS[C@H]12)c1csc(N)n1` [CEFEPIME], the MIC is 128 µg/mL (≈ 266 µM) against Klebsiella pneumoniae [4]; 0.016 µg/mL (≈ 0.0333 µM) in the assay with Escherichia coli [8]; 16 µg/mL (≈ 33.3 µM) in the assay on Escherichia coli [9]; 4 µg/mL (≈ 8.32 µM) in the assay with Escherichia coli [10]; 0.016 µg/mL (≈ 0.0333 µM) with Escherichia coli [12].
For `CO/N=C(\C(=O)N[C@@H]1C(=O)N2C(C(=O)O)=C(COC(C)=O)CS[C@H]12)c1csc(N)n1` [CEFOTAXIME], the MIC turned out to be 0.06 µg/mL in the assay with Escherichia coli [1]; 2 µg/mL in the assay on Klebsiella pneumoniae [2]; 4 µg/mL (≈ 8.78 µM) against Escherichia coli [3]; 64 µg/mL (≈ 141 µM) with Klebsiella pneumoniae [4]; 0.06 µg/mL with Escherichia coli [5]; 0.016 µg/mL in the assay on Escherichia coli [6]. In addition, the MIC in the assay with Escherichia coli [7] was 0.03 µg/mL; against Escherichia coli [8] it was 0.03 µg/mL (≈ 0.0659 µM); against Escherichia coli [9], over 256 µg/mL; in the assay on Escherichia coli [10], 16 µg/mL (≈ 35.1 µM); in the assay on Escherichia coli [11] it was 0.016 µg/mL; in the assay on Escherichia coli [12], 0.03 µg/mL (≈ 0.0659 µM).
For the compound `CO[C@@]1(NC(=O)Cc2cccs2)C(=O)N2C(C(=O)O)=C(COC(N)=O)CS[C@@H]21` [CEFOXITIN], the MIC worked out at 2 µg/mL (≈ 4.68 µM) with Escherichia coli [3]; 64 µg/mL (≈ 150 µM) against Klebsiella pneumoniae [4]; 4 µg/mL (≈ 9.36 µM) with Escherichia coli [8]; 4 µg/mL (≈ 9.36 µM) against Escherichia coli [9]; 4 µg/mL (≈ 9.36 µM) against Escherichia coli [10]; 2 µg/mL (≈ 4.68 µM) against Escherichia coli [12].
On to `CC(C)(O/N=C(\C(=O)N[C@@H]1C(=O)N2C(C(=O)[O-])=C(C[n+]3ccccc3)CS[C@H]12)c1csc(N)n1)C(=O)O` [CEFTAZIDIME], for which the MIC with Escherichia coli [1] was found to be 0.25 µg/mL; with Klebsiella pneumoniae [2], 4 µg/mL; in the assay on Escherichia coli [3], 4 µg/mL (≈ 7.32 µM); against Klebsiella pneumoniae [4], 16 µg/mL (≈ 29.3 µM); with Escherichia coli [5], 0.25 µg/mL; in the assay with Escherichia coli [6] it was 0.06 µg/mL. The MIC in the assay with Escherichia coli [7] was determined as 0.25 µg/mL; in the assay with Escherichia coli [8], 0.13 µg/mL (≈ 0.238 µM); against Escherichia coli [9], 64 µg/mL (≈ 117 µM); with Escherichia coli [10] it was 8 µg/mL (≈ 14.6 µM); in the assay with Escherichia coli [11], 0.06 µg/mL; in the assay with Escherichia coli [12], 0.06 µg/mL (≈ 0.11 µM).
For the compound `CO/N=C(\C(=O)N[C@@H]1C(=O)N2C(C(=O)O)=C(COC(N)=O)CS[C@H]12)c1ccco1` [CEFUROXIME], the MIC with Escherichia coli [3] is 256 µg/mL (≈ 603 µM); against Klebsiella pneumoniae [4] it was over 512 µg/mL; against Escherichia coli [8], 4 µg/mL (≈ 9.43 µM); against Escherichia coli [9] it was over 512 µg/mL; with Escherichia coli [10], 512 µg/mL (≈ 1210 µM); in the assay with Escherichia coli [12], 2 µg/mL (≈ 4.71 µM).
Consider `C[C@@H](O)[C@H]1C(=O)N2C(C(=O)O)=C(S[C@@H]3CN[C@H](C(=O)Nc4cccc(C(=O)O)c4)C3)[C@H](C)[C@H]12` [ERTAPENEM], for which the MIC came to 8 µg/mL in the assay on Klebsiella pneumoniae [2]; 0.016 µg/mL (≈ 0.0336 µM) in the assay on Escherichia coli [3]; 3 µg/mL (≈ 6.31 µM) in the assay on Klebsiella pneumoniae [4]; 0.016 µg/mL (≈ 0.0336 µM) in the assay with Escherichia coli [8]; 0.03 µg/mL (≈ 0.0631 µM) in the assay with Escherichia coli [9]; 0.016 µg/mL (≈ 0.0336 µM) in the assay with Escherichia coli [10]. In addition, in the assay on Escherichia coli [12], the MIC came out at 0.008 µg/mL (≈ 0.0168 µM).
For the compound `C[C@@H](O)[C@H]1C(=O)N2C(C(=O)O)=C([C@H]3CCCO3)S[C@H]12` [FAROPENEM], the MIC in the assay with Escherichia coli [1] was found to be 0.5 µg/mL; in the assay on Klebsiella pneumoniae [2], 4 µg/mL; in the assay on Escherichia coli [3] it was 1 µg/mL (≈ 3.5 µM); in the assay with Klebsiella pneumoniae [4], 4 µg/mL (≈ 14 µM); with Escherichia coli [5], 0.5 µg/mL; with Escherichia coli [6], 0.25 µg/mL. Also, the MIC in the assay on Escherichia coli [7] stood at 0.5 µg/mL; in the assay on Escherichia coli [8] it was 0.5 µg/mL (≈ 1.75 µM); against Escherichia coli [9], 1 µg/mL (≈ 3.5 µM); against Escherichia coli [10] it was 0.5 µg/mL (≈ 1.75 µM); in the assay with Escherichia coli [11], 0.5 µg/mL; against Escherichia coli [12], 0.5 µg/mL (≈ 1.75 µM).
For `C[C@@H](O)[C@H]1C(=O)N2C(C(=O)O)=C(SCCNC=N)C[C@H]12` [IMIPENEM ANHYDROUS], the MIC was 0.5 µg/mL in the assay on Klebsiella pneumoniae [2], 1 µg/mL (≈ 3.34 µM) in the assay on Klebsiella pneumoniae [4], 0.25 µg/mL in the assay with Escherichia coli [7] and 0.13 µg/mL in the assay on Escherichia coli [11].
`C[C@@H](O)[C@H]1C(=O)N2C(C(=O)O)=C(S[C@@H]3CN[C@H](C(=O)N(C)C)C3)[C@H](C)[C@H]12` [MEROPENEM]: the MIC stood at 0.03 µg/mL with Escherichia coli [1]; 0.5 µg/mL with Klebsiella pneumoniae [2]; 0.03 µg/mL (≈ 0.0782 µM) against Escherichia coli [3]; 4 µg/mL (≈ 10.4 µM) in the assay with Klebsiella pneumoniae [4]; 0.016 µg/mL in the assay on Escherichia coli [5]; 0.03 µg/mL with Escherichia coli [6]. For the same compound, the minimum inhibitory concentration (MIC) in the assay on Escherichia coli [7] is 0.03 µg/mL; in the assay with Escherichia coli [8], 0.03 µg/mL (≈ 0.0782 µM); in the assay on Escherichia coli [9] it was 0.03 µg/mL (≈ 0.0782 µM); in the assay on Escherichia coli [10] it was 0.03 µg/mL (≈ 0.0782 µM); in the assay with Escherichia coli [11], 0.016 µg/mL; in the assay on Escherichia coli [12], 0.03 µg/mL (≈ 0.0782 µM).
As to `CCN1CCN(C(=O)N[C@@H](C(=O)N[C@@H]2C(=O)N3[C@@H]2SC(C)(C)[C@@H]3C(=O)O)c2ccccc2)C(=O)C1=O` [PIPERACILLIN], the MIC in the assay on Escherichia coli [13] was 1 µg/mL; against Escherichia coli [3], over 256 µg/mL; against Klebsiella pneumoniae [4], over 256 µg/mL; with Escherichia coli [14], 2 µg/mL; in the assay with Klebsiella pneumoniae [15], over 256 µg/mL; in the assay on Escherichia coli [8], 2 µg/mL (≈ 3.86 µM). Further, the MIC in the assay on Escherichia coli [9] is over 256 µg/mL; with Escherichia coli [10], 256 µg/mL (≈ 495 µM); in the assay with Escherichia coli [16] it was 1 µg/mL; in the assay on Escherichia coli [17] it was 16 µg/mL; in the assay on Escherichia coli [12] it was 1 µg/mL (≈ 1.93 µM); in the assay with Escherichia coli [18], 2 µg/mL.
